Results from a melting point compilation (Tetko et al.; mined from patent text by program, amines drawn as free bases though some values may be those of a salt).

| SMILES | melting point [°C] |
| --- | --- |
| Clc1ccc(-c2nc(Sc3cccs3)[nH]c2-c2ccc(Cl)cc2)cc1 | 219 |
| Cc1nc(N)nc(N)c1-c1ccc([N+](=O)[O-])c(Cl)c1Cl | 265 |
| CCNCCn1c(-c2ccc(Br)cc2)cc2c1CCSC2 | 84 to 85 |
| Cc1ccc(S(=O)(=O)N(C)c2cc(C(C)(C)C)c(O)c(C(C)(C)C)c2)cc1 | 130 to 142 |
| CCOC(=O)CN(c1ccc(Cl)cc1C(O)c1ccccc1Cl)S(=O)(=O)c1ccc(OC)c(OC)c1 (centres undefined) | 86 |
| CSc1ccc(C=CC(=O)c2ccc([N+](=O)[O-])cc2)cc1 | 160 |
| CN1CCC(n2nc(-c3c(-c4ccccc4)nn4ccccc34)ccc2=O)CC1 | 139 to 140 |
| O=C1N(CCN2CCCC2)CCN1c1ccc(-c2nnc(CSCCOc3ccccc3)o2)cc1 | 125 to 129 |
| CC(C)(C)OC(=O)N[C@@H]1C[C@H](CO)[C@@H](OC(=O)c2ccccc2)[C@H]1OC(=O)c1ccccc1 | 78 to 79 |
| O=C1N(Cc2nsc(Cl)n2)c2ccccc2C12COc1cc3c(cc12)OCO3 (centres undefined) | 114 to 116 |
| Cc1cc2cc(CN3CCC(CCC(N)=O)CC3)cnc2cc1NC(=O)c1ccc(-c2ccc(F)cc2)cc1 | 223 to 227 |
| C=C(C)CCOc1c(-c2ccc(S(C)(=O)=O)cc2)cnn(-c2ccc(F)cc2)c1=O | 109 to 111 |
| Cc1nc(-c2ccc(Cl)cc2)[nH]c1C(=O)N[C@H](C)[C@](O)(Cn1cncn1)c1ccc(F)cc1F | 165 to 166 |
| CCCCNC(=O)Nc1ncc(-c2ccncc2)cn1 | 204 to 206 |
| CCC(=O)C(=Cc1cc(O)c(O)c([N+](=O)[O-])c1)C(=O)CC | 133 to 135 |
| O=C(CSc1n[nH]c(-c2ccccc2)n1)C12CC3CC(CC(C3)C1)C2 | 187 to 188 |
| CCOC(=O)c1ccc(C2=CCCCC2)cc1 | 66 |
| CC(C)(C)NCC(O)COc1ccccc1-c1ccc(Cl)nn1 (centres undefined) | 93 to 94 |
| CN(C)C(=O)N1Cc2c(-c3noc(C4CC4)n3)ncn2-c2ccc(Cl)cc21 | 254 to 256 |
| C#CC(C)NC(=O)CCCCl (centres undefined) | 50 to 51 |
| COc1cc(OCC(CO)CO)c(-c2cccs2)cc1C=CC(=O)c1ccc(C(=O)O)cc1 | 199 to 201 |
| Cc1c(-c2ccccc2)nn(C(C)(C)C(=O)N(C)C)c1Cl | 96 to 99 |
| CCOCc1ccc2oc(C(=O)OCC)c(C)c2c1O | 97 to 98 |
| OCc1c(C(F)(F)F)[nH]c2ccccc12 | 106 |
| C(C#CSCc1ccccc1)#CSCc1ccccc1 | 38 to 39 |

| SMILES | melting point [°C] |
| --- | --- |
| CC[C@H](C)[C@H](OCc1cc(F)cc(F)c1)[C@H]1[C@H]([N+](=O)[O-])[C@H](c2ccccc2)N[C@@H]1C(=O)NCC(=O)O | 140 to 141 |
| O=C(NCCc1ccc(F)cc1)OCc1ccccc1 | 51 to 52 |
| CCOc1ccc(C2=NN(C3CCCCC3)C(=O)[C@H]3CC=CC[C@@H]23)cc1OCC (relative stereo) | 147 to 148 |
| COC(=O)c1cc(-c2nc(CCl)c(C)o2)ccc1C | 89 to 90 |
| CC(=O)SCC(CC#N)C(=O)O (centres undefined) | 110 to 112 |
| CC(=O)Nc1ccccc1NS(=O)(=O)c1cc(C(=O)O)cc([N+](=O)[O-])c1Oc1ccccc1 | 224 to 226 |
| CC(C)(C)OC(=O)N1CCC(Oc2ccc(C3=NNC(=O)CC3c3ccccn3)cc2)CC1 (centres undefined) | 213 to 214 |
| CC1=NCN(c2csc(Br)c2)O1 | 72 to 73 |
| Cc1ccc(-c2cc(CN)c(=O)n(CC(C)C)n2)cc1 | 74.9 to 77.9 |
| Cc1nc(N2C[C@@H](Cc3ccccc3)NC2=O)sc1C(=O)NCc1ccccc1 | 212 to 214 |
| Cc1cccc(C)c1NC(=O)NC1CC(C)(C)c2ccccc2C1(C)C (centres undefined) | 216 to 218 |
| COC(=O)c1ccccc1S(=O)(=O)NC(=O)c1cc(C)on1 | 101 |
| N#Cc1cc(-c2ccncn2)c[nH]c1=O | > 250 |
| Cc1ccc(Sc2nc(F)c(C#N)cc2F)cc1 | 120 to 121 |
| Cc1nc2sccn2c(=O)c1Br | 127 to 129 |
| FC(F)(F)c1ccc(NC(=S)Nc2ncccc2OCc2ccccc2)cc1 | 165 to 167 |
| CCCn1nc(-c2cnc(N)nc2-c2ccccc2)ccc1=O | 188 to 189 |
| CNC(=O)c1cccc(NCC(=O)NCCc2ccc(OC)c(OC)c2)c1 | 93 to 96.5 |
| Fc1ccc2c(c1F)OCCN2 | 48 to 54 |
| Clc1ccc2c(c1Cl)C=NCC2 | 196 to 200 |
| CC(C)(C)OC(=O)c1ccccc1CNC(=O)C1Cc2ccccc2N1S(=O)(=O)c1ccc(-c2cccc(C(F)(F)F)c2)cc1 (centres undefined) | 68 |
| CC(=O)OCC1OC(Oc2ncn(Cc3ccc([N+](=O)[O-])cc3)c2C(N)=O)C(OC(C)=O)C1OC(C)=O (centres undefined) | 156 |
| CC(=O)c1cc([N+](=O)[O-])c(N)cc1C#N | 255 to 260 |
| COc1cccc2c1CCNC2=S | 44 to 46 |
| CC1CN(c2c(F)cc3c(=O)c(C(=O)O)cn(C)c3c2C(F)(F)F)CCN1c1ncccn1 (centres undefined) | 283 to 284 |

| SMILES | melting point [°C] |
| --- | --- |
| CCOC(=O)c1n[nH]c(C(=O)OCC)c1C(=O)c1ccc(Cl)cc1[N+](=O)[O-] | 168 |
| Cc1ccc2nc(-c3ccccc3Br)ncc2c1 | 70 to 71 |
| CC(=O)Nc1ccc(C=C2CCc3ncc(C)cc3C2=O)cc1 | 226 to 228 |
| FC(F)(F)c1ccccc1N=C1CCc2cc3c(nc21)C(=Nc1ccccc1C(F)(F)F)CC3 | > 350 |
| CCCCCCCCc1cnc(-c2ccc(C#N)cc2)nc1 | 66.1 to 66.5 |
| O=C(Cc1ccc(F)cc1)NC1CCN(Cc2ccc(Br)cc2)CC1 | 144 |
| CC(C)c1cccc(C(C)C)c1NS(=O)(=O)CC#N | 195 to 197 |
| COc1ccc(Oc2ccc(C(=O)N(C(C)C)C3CCCCC3)cc2)cc1 | 81.7 |
| O=C(NCCCCn1ccnc1)Nc1ccccc1Cl | 87 to 88 |
| Cn1ncc(C#N)c1-c1ccc([N+](=O)[O-])o1 | 150 to 152 |
| Cc1ccc(-c2ccc(/C=C/C(=O)O)s2)cc1 | 223 to 225 |
| O=c1nc(-c2cccc(CSCc3ccccc3)n2)sc2ccccc12 | 126 to 128 |
| COc1ccc(C(=O)c2cccc(F)c2)cc1C(=O)O | 200 |
| CC1CN(C(=O)N(c2ccccc2)c2ccccc2)CCN1C(=O)N(c1ccccc1)c1ccccc1 (centres undefined) | 200 to 202 |
| COc1cccc(C2(CCC(=O)O)NC(=O)NC2=O)c1 (centres undefined) | 138 |
| CCCCC(C)(C)C(O)CCN1C(=O)NC(=O)C1CCCCCCC(=O)O (centres undefined) | 90 to 98 |
| Cc1c(C)n(CC=CC(F)(F)F)c2c(OCc3ccccc3)nncc12 | 138 to 140 |
| COc1ccccc1NC(=O)NC1N=C(c2ccc(Cl)cc2)c2c(sc(C)c2C)-n2c(C)nnc21 (centres undefined) | 261 to 262 |
| COC1(c2csc(Sc3ccc(/C(C)=N/O)cn3)c2)CCOCC1 | 151 to 153 |
| CCCC12CCC3C4CCC(=O)C=C4CCC3C1CCC2O (centres undefined) | 126 to 127 |
| CCOC(=O)COc1cc(F)ccc1C(=S)NCc1cccc([N+](=O)[O-])c1 | 118 |
| Cc1ccc(-c2c(CNC(=O)OC(C)(C)C)n(CC(C)C)c(=O)c3ccc(/C=C/C(=O)O)cc23)cc1 | 171 to 173 |
| CC1N(C(=O)c2ccc(C(F)(F)F)cc2)CC(n2cncn2)OC1(Cn1cncn1)c1ccc(Cl)cc1Cl (centres undefined) | 191 to 201 |
| COC(=O)CCC(CCCCNS(=O)(=O)c1ccc(Cl)cc1)CCCc1cccnc1 (centres undefined) | 81 to 82 |
| OCC1COC(Cc2nc[nH]n2)(c2ccc(Cl)cc2)O1 (centres undefined) | 115 to 117 |

| SMILES | melting point [°C] |
| --- | --- |
| O=C(O)[C@H](Cc1ccc(C(F)(F)F)cc1)[C@@H](O)c1ccc(F)cc1F (racemic) | 120 to 121 |
| CN(C(=O)Cc1csc(N)n1)c1ccc(Cl)cc1 | 148 to 150 |
| C#CCCCCCCCCC(c1ccc(Cl)cc1)C1(S(=O)(=O)c2ccc(OC)cc2)SC(=O)NC1=O (centres undefined) | 114 to 121 |
| COc1ccccc1N=C(C)CC(=O)C(F)(F)F | 40 |
| CCc1nnc(-c2ccc(OC)cc2)n1-c1ccccc1C | 118 |
| O=C1NCCN1Cc1ccc2ccccc2c1 | 149 to 152 |
| CCCCc1ncc(/C=C2\C(=O)NC(=O)N2Cc2cccs2)n1Cc1ccc(C(=O)O)cc1 | 297 to 299 |
| FC(F)(F)COc1cc(-c2cc(C(F)(F)F)n3cnc(-c4ccncc4)c3n2)ccc1C(F)(F)F | 233 |
| Cc1oncc1-c1cccc(OC2SCC(O)C(O)C2O)c1 (centres undefined) | 180 |
| C[C@H]1[C@H](c2ccccc2)OC(c2cc(Br)cc3c2OCC3)N1C (some centres undefined) | 83.5 to 85.5 |
| Cn1ccc2c1CCn1ccnc1C2=C1CCN(CCNc2ncccn2)CC1 | 202 |
| COC(=O)c1nc(Cl)c(F)c(N)c1/C=C/[Si](C)(C)C | 103 to 105 |
| CCCCCCCCCCCCCCOc1cccc(CC(=O)Nc2ccccc2CBr)c1 | 103 to 106 |
| CC(C)(NC(=O)c1nnc2ccc(OCCCN3CCC(OC(c4ccccc4)c4ccccc4)CC3)nn12)C(=O)O | 163 to 165 |
| OC1CSC(Oc2cncc(-c3ccccc3F)c2)C(O)C1O (centres undefined) | 206 to 208 |
| COc1cccc(C(=O)N(C)Cc2cccc3c2C(=O)N(C2CCC(=O)NC2=O)C3=O)c1 (centres undefined) | 216 to 218 |
| Cc1cccc(Cl)c1NC(=S)Nc1c(C)nn(C)c1C | 201 to 202 |
| CC1(Cn2nc(-c3ccc(Br)cc3)oc2=O)Cn2cc([N+](=O)[O-])nc2O1 (centres undefined) | 231 to 233 |
| CCCN=C(N)Nc1ccnc(S(C)=O)n1 (centres undefined) | 179 to 180 |
| O=C(NO)C1(S(=O)(=O)c2ccc(OCC#CCN3CCOCC3)cc2)CCN(Cc2ccc(Br)cc2)CC1 | 94 |
| CC#CCOc1ccc(C(=O)NC[C@@H](C(=O)NO)N2CCCCC2)cc1 | 144 |
| COC(=O)C(Sc1ccc(C)cc1)(C1=NCCCS1)[N+](=O)[O-] (centres undefined) | 85 to 89 |
| CCC1(CO)COC2(CC(c3ccc(Cl)cc3)SC(c3ccc(Cl)cc3)C2)OC1 (centres undefined) | 138 |
| CC1CCc2c(C#N)c(F)cc3c(=O)c(C(=O)O)cn1c23 (centres undefined) | 300 |
